# According to patent EP0726263A2, “Herbicidal (1,3,4)oxadiazoles and thiadiazoles” (American Cyanamid Company, priority 1995, dated 1996):
# Key:
# Format in all cases: in vivo
# [1] = system: Triticum aestivum; experiment: Herbicidal activity, preemergence test; conditions: pre; sprayed onto soil, 800 g of active material per hectare; evaluated 3 weeks after treatment
# Outline: (§1)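 Acetone/TRITON X-155 formulation diluted in water, sprayed onto horticultural loam soon after sowing at 800 g active material per hectare in 900 litres per hectare. Visual 0-9 rating of stand, vigor, malformation, size and chlorosis versus untreated sown soil, scored 3 weeks after treatment.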
# [2] = system: Amaranthus retroflexus; experiment: Herbicidal activity, preemergence test; conditions: pre; sprayed onto soil, 800 g of active material per hectare; evaluated 3 weeks after treatment
# Outline: as §1
# [3] = system: Helianthus annuus; experiment: Herbicidal activity, preemergence test; conditions: pre; sprayed onto soil, 800 g of active material per hectare; evaluated 3 weeks after treatment
# Outline: as §1
# [4] = system: Setaria viridis; experiment: Herbicidal activity, preemergence test; conditions: pre; sprayed onto soil, 800 g of active material per hectare; evaluated 3 weeks after treatment
# Outline: as §1
# [5] = system: Gossypium hirsutum; experiment: Herbicidal activity, preemergence test; conditions: pre; sprayed onto soil, 800 g of active material per hectare; evaluated 3 weeks after treatment
# Outline: as §1
# [6] = system: Viola arvensis; experiment: Herbicidal activity, preemergence test; conditions: pre; sprayed onto soil, 800 g of active material per hectare; evaluated 3 weeks after treatment
# Outline: as §1
# [7] = system: Lamium purpureum; experiment: Herbicidal activity, preemergence test; conditions: pre; sprayed onto soil, 800 g of active material per hectare; evaluated 3 weeks after treatment
# Outline: as §1
# [8] = system: Galium aparine; experiment: Herbicidal activity, preemergence test; conditions: pre; sprayed onto soil, 800 g of active material per hectare; evaluated 3 weeks after treatment
# Outline: as §1
# [9] = system: Zea mays; experiment: Herbicidal activity, preemergence test; conditions: pre; sprayed onto soil, 800 g of active material per hectare; evaluated 3 weeks after treatment
# Outline: as §1
# [10] = system: Hordeum vulgare; experiment: Herbicidal activity, preemergence test; conditions: pre; sprayed onto soil, 800 g of active material per hectare; evaluated 3 weeks after treatment
# Outline: as §1
# [11] = system: Abutilon theophrasti; experiment: Herbicidal activity, preemergence test; conditions: pre; sprayed onto soil, 800 g of active material per hectare; evaluated 3 weeks after treatment
# Outline: as §1
# [12] = system: Alopecurus myosuroides; experiment: Herbicidal activity, preemergence test; conditions: pre; sprayed onto soil, 800 g of active material per hectare; evaluated 3 weeks after treatment
# Outline: as §1
# [13] = system: Echinochloa crus-galli; experiment: Herbicidal activity, preemergence test; conditions: pre; sprayed onto soil, 800 g of active material per hectare; evaluated 3 weeks after treatment
# Outline: as §1
# [14] = system: Glycine max; experiment: Herbicidal activity, preemergence test; conditions: pre; sprayed onto soil, 800 g of active material per hectare; evaluated 3 weeks after treatment
# Outline: as §1
# [15] = system: Ambrosia artemisifolia; experiment: Herbicidal activity, preemergence test; conditions: pre; sprayed onto soil, 800 g of active material per hectare; evaluated 3 weeks after treatment
# Outline: as §1
# [16] = system: Veronica persica; experiment: Herbicidal activity, preemergence test; conditions: pre; sprayed onto soil, 800 g of active material per hectare; evaluated 3 weeks after treatment
# Outline: as §1
# [17] = system: Ipomoea hederacea; experiment: Herbicidal activity, preemergence test; conditions: pre; sprayed onto soil, 800 g of active material per hectare; evaluated 3 weeks after treatment
# Outline: as §1
# [18] = system: Triticum aestivum; experiment: Herbicidal activity, postemergence test; conditions: post; sprayed onto seedling plants, 800 g of active material per hectare; evaluated 2 weeks after treatment
# Outline: (§2)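 Spray dose 800 g a.i./ha in 900 L/ha; acetone stock with 0.4% Triton X-155, water-diluted. Pre: sown loam soil, read at 3 wk. Post: seedling plants, read at 2 wk. Visual 0-9 rating vs untreated.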
# [19] = system: Amaranthus retroflexus; experiment: Herbicidal activity, postemergence test; conditions: post; sprayed onto seedling plants, 800 g of active material per hectare; evaluated 2 weeks after treatment
# Outline: as §2
# [20] = system: Helianthus annuus; experiment: Herbicidal activity, postemergence test; conditions: post; sprayed onto seedling plants, 800 g of active material per hectare; evaluated 2 weeks after treatment
# Outline: as §2
# [21] = system: Stellaria media; experiment: Herbicidal activity, postemergence test; conditions: post; sprayed onto seedling plants, 800 g of active material per hectare; evaluated 2 weeks after treatment
# Outline: as §2
# [22] = system: Setaria viridis; experiment: Herbicidal activity, postemergence test; conditions: post; sprayed onto seedling plants, 800 g of active material per hectare; evaluated 2 weeks after treatment
# Outline: as §2
# [23] = system: Gossypium hirsutum; experiment: Herbicidal activity, postemergence test; conditions: post; sprayed onto seedling plants, 800 g of active material per hectare; evaluated 2 weeks after treatment
# Outline: as §2
# [24] = system: Viola arvensis; experiment: Herbicidal activity, postemergence test; conditions: post; sprayed onto seedling plants, 800 g of active material per hectare; evaluated 2 weeks after treatment
# Outline: as §2
# [25] = system: Lamium purpureum; experiment: Herbicidal activity, postemergence test; conditions: post; sprayed onto seedling plants, 800 g of active material per hectare; evaluated 2 weeks after treatment
# Outline: as §2
# [26] = system: Galium aparine; experiment: Herbicidal activity, postemergence test; conditions: post; sprayed onto seedling plants, 800 g of active material per hectare; evaluated 2 weeks after treatment
# Outline: as §2
# [27] = system: Zea mays; experiment: Herbicidal activity, postemergence test; conditions: post; sprayed onto seedling plants, 800 g of active material per hectare; evaluated 2 weeks after treatment
# Outline: as §2
# [28] = system: Hordeum vulgare; experiment: Herbicidal activity, postemergence test; conditions: post; sprayed onto seedling plants, 800 g of active material per hectare; evaluated 2 weeks after treatment
# Outline: as §2
# [29] = system: Abutilon theophrasti; experiment: Herbicidal activity, postemergence test; conditions: post; sprayed onto seedling plants, 800 g of active material per hectare; evaluated 2 weeks after treatment
# Outline: as §2
# [30] = system: Alopecurus myosuroides; experiment: Herbicidal activity, postemergence test; conditions: post; sprayed onto seedling plants, 800 g of active material per hectare; evaluated 2 weeks after treatment
# Outline: as §2
# [31] = system: Echinochloa crus-galli; experiment: Herbicidal activity, postemergence test; conditions: post; sprayed onto seedling plants, 800 g of active material per hectare; evaluated 2 weeks after treatment
# Outline: as §2
# [32] = system: Glycine max; experiment: Herbicidal activity, postemergence test; conditions: post; sprayed onto seedling plants, 800 g of active material per hectare; evaluated 2 weeks after treatment
# Outline: as §2
# [33] = system: Ambrosia artemisifolia; experiment: Herbicidal activity, postemergence test; conditions: post; sprayed onto seedling plants, 800 g of active material per hectare; evaluated 2 weeks after treatment
# Outline: as §2
# [34] = system: Veronica persica; experiment: Herbicidal activity, postemergence test; conditions: post; sprayed onto seedling plants, 800 g of active material per hectare; evaluated 2 weeks after treatment
# Outline: as §2
# [35] = system: Ipomoea hederacea; experiment: Herbicidal activity, postemergence test; conditions: post; sprayed onto seedling plants, 800 g of active material per hectare; evaluated 2 weeks after treatment
# Outline: as §2
# [36] = system: Stellaria media; experiment: Herbicidal activity, preemergence test; conditions: pre; sprayed onto soil, 800 g of active material per hectare; evaluated 3 weeks after treatment
# Outline: as §1
# [37] = system: Matricaria inodora; experiment: Herbicidal activity, preemergence test; conditions: pre; sprayed onto soil, 800 g of active material per hectare; evaluated 3 weeks after treatment
# Outline: as §1
# [38] = system: Papaver rhoeas; experiment: Herbicidal activity, preemergence test; conditions: pre; sprayed onto soil, 800 g of active material per hectare; evaluated 3 weeks after treatment
# Outline: as §1
# [39] = system: Matricaria inodora; experiment: Herbicidal activity, postemergence test; conditions: post; sprayed onto seedling plants, 800 g of active material per hectare; evaluated 2 weeks after treatment
# Outline: as §2
# [40] = system: Papaver rhoeas; experiment: Herbicidal activity, postemergence test; conditions: post; sprayed onto seedling plants, 800 g of active material per hectare; evaluated 2 weeks after treatment
# Outline: as §2
Compound,TRZAW control rating (0-9) [1],HELAN control rating (0-9) [3],SETVI control rating (0-9) [4],GOSHI control rating (0-9) [5],VIOAR control rating (0-9) [6],LAMPU control rating (0-9) [7],GALAP control rating (0-9) [8],ZEAMX control rating (0-9) [9],HORVW control rating (0-9) [10],ABUTH control rating (0-9) [11],ALOMY control rating (0-9) [12],GLXMA control rating (0-9) [14],VERPE control rating (0-9) [16],IPOHE control rating (0-9) [17],TRZAW control rating (0-9) [18],HELAN control rating (0-9) [20],SETVI control rating (0-9) [22],GOSHI control rating (0-9) [23],VIOAR control rating (0-9) [24],LAMPU control rating (0-9) [25],also measured
CC(NC(=O)c1nnc(-c2ccccc2)o1)c1cccs1 (racemic) [Example 1],0 (no effect),0 (no effect),4 (injury),0 (no effect),6 (herbicidal effect),7 (good herbicidal effect),0 (no effect),0 (no effect),0 (no effect),0 (no effect),0 (no effect),0 (no effect),5 (definite injury),5 (definite injury),2 (slight effect),9 (complete kill),9 (complete kill),9 (complete kill),9 (complete kill),4 (injury),AMARE control rating (0-9) [2]: 0 (no effect); ECHCG control rating (0-9) [13]: 0 (no effect); AMBEL control rating (0-9) [15]: 0 (no effect); AMARE control rating (0-9) [19]: 9 (complete kill); STEME control rating (0-9) [21]: 9 (complete kill); GALAP control rating (0-9) [26]: 6 (herbicidal effect); ZEAMX control rating (0-9) [27]: 3 (moderate effect); HORVW control rating (0-9) [28]: 5 (definite injury); ABUTH control rating (0-9) [29]: 8 (approaching complete kill); ALOMY control rating (0-9) [30]: 2 (slight effect); ECHCG control rating (0-9) [31]: 6 (herbicidal effect); GLXMA control rating (0-9) [32]: 8 (approaching complete kill); AMBEL control rating (0-9) [33]: 8 (approaching complete kill); VERPE control rating (0-9) [34]: 9 (complete kill); IPOHE control rating (0-9) [35]: 5 (definite injury)
CC(NC(=O)c1nnc(C(C)(C)C)o1)c1cccs1 (racemic) [Example 5],0 (no effect),0 (no effect),8 (approaching complete kill),0 (no effect),6 (herbicidal effect),2 (slight effect),0 (no effect),0 (no effect),0 (no effect),7 (good herbicidal effect),4 (injury),0 (no effect),8 (approaching complete kill),0 (no effect),4 (injury),8 (approaching complete kill),6 (herbicidal effect),9 (complete kill),7 (good herbicidal effect),1 (trace effect),AMARE control rating (0-9) [2]: 5 (definite injury); STEME control rating (0-9) [36]: 8 (approaching complete kill); ECHCG control rating (0-9) [13]: 6 (herbicidal effect); AMBEL control rating (0-9) [15]: 1 (trace effect); AMARE control rating (0-9) [19]: 5 (definite injury); STEME control rating (0-9) [21]: 8 (approaching complete kill); GALAP control rating (0-9) [26]: 5 (definite injury); ZEAMX control rating (0-9) [27]: 4 (injury); HORVW control rating (0-9) [28]: 4 (injury); ABUTH control rating (0-9) [29]: 8 (approaching complete kill); ALOMY control rating (0-9) [30]: 3 (moderate effect); ECHCG control rating (0-9) [31]: 4 (injury); GLXMA control rating (0-9) [32]: 8 (approaching complete kill); AMBEL control rating (0-9) [33]: 9 (complete kill); VERPE control rating (0-9) [34]: 9 (complete kill); IPOHE control rating (0-9) [35]: 6 (herbicidal effect)
"C[C@H](NC(=O)c1nnc(C(C)(C)C)o1)c1ccccc1 [Example 2, (S)-5-tert-Butyl-[1,3,4]oxadiazole-2-carboxylic acid (1-phenylethyl)amide]",0 (no effect),0 (no effect),5 (definite injury),0 (no effect),5 (definite injury),0 (no effect),0 (no effect),0 (no effect),0 (no effect),4 (injury),2 (slight effect),0 (no effect),8 (approaching complete kill),0 (no effect),3 (moderate effect),4 (injury),4 (injury),4 (injury),5 (definite injury),2 (slight effect),AMARE control rating (0-9) [2]: 5 (definite injury); STEME control rating (0-9) [36]: 5 (definite injury); ECHCG control rating (0-9) [13]: 0 (no effect); AMBEL control rating (0-9) [15]: 3 (moderate effect); AMARE control rating (0-9) [19]: 6 (herbicidal effect); STEME control rating (0-9) [21]: 6 (herbicidal effect); GALAP control rating (0-9) [26]: 4 (injury); ZEAMX control rating (0-9) [27]: 1 (trace effect); HORVW control rating (0-9) [28]: 1 (trace effect); ABUTH control rating (0-9) [29]: 6 (herbicidal effect); ALOMY control rating (0-9) [30]: 0 (no effect); ECHCG control rating (0-9) [31]: 3 (moderate effect); GLXMA control rating (0-9) [32]: 3 (moderate effect); AMBEL control rating (0-9) [33]: 5 (definite injury); VERPE control rating (0-9) [34]: 7 (good herbicidal effect); IPOHE control rating (0-9) [35]: 5 (definite injury)
C[C@H](NC(=O)c1nnc(N(C)C)o1)c1ccccc1 [Example 6],0 (no effect),0 (no effect),0 (no effect),0 (no effect),2 (slight effect),0 (no effect),0 (no effect),0 (no effect),0 (no effect),0 (no effect),0 (no effect),0 (no effect),0 (no effect),0 (no effect),1 (trace effect),2 (slight effect),0 (no effect),2 (slight effect),0 (no effect),1 (trace effect),MATIN control rating (0-9) [37]: 0 (no effect); PAPRH control rating (0-9) [38]: 0 (no effect); MATIN control rating (0-9) [39]: 0 (no effect); GALAP control rating (0-9) [26]: 2 (slight effect); ZEAMX control rating (0-9) [27]: 0 (no effect); HORVW control rating (0-9) [28]: 2 (slight effect); ABUTH control rating (0-9) [29]: 2 (slight effect); ALOMY control rating (0-9) [30]: 2 (slight effect); GLXMA control rating (0-9) [32]: 0 (no effect); PAPRH control rating (0-9) [40]: 0 (no effect); VERPE control rating (0-9) [34]: 0 (no effect); IPOHE control rating (0-9) [35]: 2 (slight effect)
